The nature of series [1]: in vivo. The conditions noted are these: male, Sprague Dawley, rat. As to the method:
Six male Sprague Dawley rats were administrated a single dose via intravenous injection (iv, n=3) and oral administration (po, n=3), respectively. Intravenous injection was performed by formulating the compounds into 0.25 mg/ml or 0.5 mg/mL solutions using 10% DMSO/30% PEG400/60% water and administering it at a volume of 2 mL/kg. Oral administration was performed by formulating the compounds into 0.6 mg/ml or 2.0 mg/mL homogeneous suspensions using 0.5% methylcellulose and administering it at a volume of 5 mL/kg.
The pharmacokinetic parameters of the compounds were calculated using the WinNolin non-compartmental model.

How the values of series [2] were obtained: (§1) The procedure for identifying microsomal metabolites is as follows:
(§2) The compounds (test compounds and their numbers are shown below, among which compounds A1 and B1 are prepared by referring to the relevant method disclosed in CN110396087A) were weighed and dissolved into dimethyl sulfoxide to prepare a 20 mM solution. The compound stock solution was diluted with 50% acetonitrile in water (v/v) to a concentration of 1.0 mM as a working solution. Liver microsomes (20 mg/mL) were diluted to 1.27 mg/mL with 50 mM dipotassium hydrogen phosphate buffer as a liver microsome working solution. Reduced coenzyme was weighed and dissolved in 3307 μL of phosphate buffer (50 mM) to 5.0 mM as a reduced coenzyme working solution. For T=60 minutes samples, 4 μL of test working solution (1.0 mM) was added, followed by 316 μL of liver microsome working solution (1.27 mg/mL), and finally, 80 μL of reduced coenzyme working solution was added to start the reaction. For T=0 minutes samples, 316 μL of liver microsome working solution (1.27 mg/mL) was added and then 80 μL of reduced coenzyme working solution was added to start the reaction, without test solution incubation. After incubation at 37° C. for 60 minutes, 1200 μL of stop solution was added to stop the enzyme reaction. For T=0 minute samples, 4 μL of test working solution (1.0 mM) was added. The sample plate was placed on a vortexer and vortexed at 600 rpm for 5 minutes. Then, the sample plate was centrifuged at 4000 rpm for 10 minutes. The supernatant was removed, mixed, and dried at room temperature with nitrogen. The residue dried with nitrogen was redissolved in 300 μL of 10% acetonitrile (0.1% FA) solvent and then centrifuged at 4000 rpm for 15 minutes. The supernatant was transferred to a detection plate for mass spectrometry. Mass spectrometry was performed using LC/Q-Exactive plus.
(§3) 7-Ethoxycoumarin (10 μM) was selected as a positive control compound and operated in parallel with the compounds.

How the values of series [3] were obtained:
as §1, §2, §3
This is another data set of the same source.

The procedure of series [4]:
as §1, §2, §3
This is another data set of the same source.

How the values of series [5] were obtained: as §1, §2, §3
This is another data set of the same source.

A short description of series [6]: in vivo. The following applies: male, cynomolgus monkey. As to the method:
Three male Cynomolgus macaques were administrated a single dose via intravenous injection (iv, 1 mg/kg, n=3), followed by oral administration (po, 10 mg/kg, n=3) after washing out for one week. Intravenous injection was performed by formulating the compounds into 1.0 mg/mL solutions using water or 10% DMSO/30% PEG400/water and administering it at a volume of 1 mL/kg. Oral administration was performed by formulating the compounds into 2.0 mg/mL solutions or suspensions using water or 0.5% methylcellulose/1.7 meq 1N hydrochloric acid and administering it at a volume of 5 mL/kg.
The pharmacokinetic parameters of the compounds were calculated using the non-compartmental model.

The procedure of series [7]:
as §1, §2, §3
This is another data set of the same source.

Series [8] is described as follows: Solid state stability of the free base crystalline form A (HPLC). The following applies: closed placement at 60° C. for 1 day. Type of series: physicochemical.

Where two headings read alike, the source gives them in different places.

The term AUC(0-t) denotes exposure summed from dosing to a finite time, without extrapolation to infinity. One may read the clearance as the volume of plasma or blood freed of the substance per unit of time. For orientation: bioavailability means the share of a dose that reaches the circulation, judged against a reference dose that is usually intravenous. For the molecule `[2H]C([2H])(Oc1cc(-c2cnn(C3CCN(C)CC3)c2)cnc1N)c1cccc(C#CC(C)(C)O)c1` [C], in “in vivo [1]” (iv, 0.5 mg/kg), the exposure AUC(0-t) was determined as 74.8 ng·h/mL and the clearance was determined as 101 mL/min/kg. In the series “in vivo [1]” (po, 3 mg/kg), the AUC(0-t) came out at 42.8 ng·h/mL and the bioavailability was 9.52%.

Take `CN1CCC(n2cc(-c3cnc(N)c(OCc4cccc(C#CC(C)(C)O)c4)c3)cn2)CC1` [Compound A1, reference compound]: the “remaining percentage of the parent cores after 60 min” value (“remaining percentage” below) is on record as 0.36% in series [2] (cynomolgus macaque, microsomes, 1 h, 10 µM); 0.17% in series [3] (beagle, dog, microsomes, 1 h, 10 µM); 2.44% in series [4] (rat, microsomes, 1 h, 10 µM); 43.84% in series [5] (human, microsomes, 1 h, 10 µM); 1.13% in series [7] (mouse, microsomes, 1 h, 10 µM). For the same molecule, the exposure AUC(0-t) in “in vivo [1]” (iv, 1 mg/kg) was determined as 116 ng·h/mL; in the series “in vivo [1]” (po, 10 mg/kg) it was 79.8 ng·h/mL; in the series “in vivo [6]” (iv, 1 mg/kg), 881 ng·h/mL; in the series “in vivo [6]” (po, 10 mg/kg), 388 ng·h/mL. Also, the clearance was determined as 129 mL/min/kg in the series “in vivo [1]” (iv, 1 mg/kg) and 18.9 mL/min/kg in the series “in vivo [6]” (iv, 1 mg/kg). Further, the bioavailability in the series “in vivo [1]” (po, 10 mg/kg) is 6.84%; in the series “in vivo [6]” it was 4.61%.

On to `[2H]C([2H])([2H])N1CCC(n2cc(-c3cnc(N)c(OCc4cccc(C#CC(C)(C)O)c4)c3)cn2)CC1` [Compound A2 free base crystalline form A, 4-(3-(((2-amino-5-(1-(1-trideuteriomethylpiperidin-4-yl)-1H-pyrazol-4-yl)pyridin-3-yl)oxy)methyl)phenyl)-2-methylbut-3-yn-2-ol], for which, in series [8] (RRT 0.95, starting sample 0.42), the “HPLC Area (%) 60° C./1 day, peak 1” value stood at 0.41%. Besides, in series [8] (RRT 1.00 (main peak), starting sample 99.26), the “HPLC Area (%) 60° C./1 day, peak 2” value came to 99.33%. In series [8] (RRT 1.05, starting sample 0.22), the “HPLC Area (%) 60° C./1 day, peak 3” value was found to be 0.17%. In addition, the “HPLC Area (%) 60° C./1 day, peak 4” value in series [8] (RRT 1.06, starting sample 0.10) came to 0.09%.

Regarding `CN1CCC(c2ncc(-c3cnc(N)c(OCc4cccc(C#CC(C)(C)O)c4)c3)s2)CC1` [Compound B1, reference compound], the “remaining percentage” value in series [2] is 9.11%; in series [3] it was 0.12%; in series [4] it was 11.21%; in series [5], 51.82%; in series [7], 1.24%.

As for `[2H]C([2H])([2H])N1CCC(c2ncc(-c3cnc(N)c(OCc4cccc(C#CC(C)(C)O)c4)c3)s2)CC1` [Compound B2], the “remaining percentage” value in series [2] is recorded as 23.4%; in series [3] it was 8.9%; in series [4], 43.9%; in series [5] it was 70.4%; in series [7], 42.8%.

In “in vivo [1]” (iv, 0.3 mg/kg), `[2H]C([2H])([2H])C(O)(C#Cc1cccc(COc2cc(-c3cnn(C4CCN(C)CC4)c3)cnc2N)c1)C([2H])([2H])[2H]` [D] displayed an exposure AUC(0-t) of 28.7 ng·h/mL and a clearance of 151 mL/min/kg. Also, in “in vivo [1]” (po, 2 mg/kg), the area under the curve AUC(0-t) was 9.94 ng·h/mL and the bioavailability was 5.2%.

The values above are taken from patent US20250388572A1, “USE OF HPK1 INHIBITOR IN PREVENTION AND/OR TREATMENT OF HUMAN PATHOGEN INFECTION” (priority 2022, published 2025).
